Reference: US10865208B2, “ATG7 inhibitors and the uses thereof” (Millennium Pharmaceuticals, Inc., priority 2016, dated 2020)

Molecular target: recombinant human His-ATG7 enzyme (Homo sapiens (Human), UniProt O95352)
Test: ATG7 Enzyme Assay (HTRF/FRET, ATG3-GST and Flag-Gabarap)
Type: biochemical
Conditions: for inhibition at 0.111 µM: Concentration 0.111 μM; for inhibition at 0.123 µM: Concentration 0.123 μM
Outline: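 0.15 nM His-ATG7 was reacted with 5 nM ATG3-GST, 5 nM Flag-Gabarap and 10 μM ATP in HEPES pH 7.5 containing MgCl2, GSH and TCEP for 105 min at 24° C, then stopped with EDTA/KF. Eu-anti-Flag and anti-GST-APC HTRF was read after 2 h. Results are given as single-concentration % inhibition or IC50.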

Chain of recombinant human His-ATG7 enzyme (O95352 whole entry): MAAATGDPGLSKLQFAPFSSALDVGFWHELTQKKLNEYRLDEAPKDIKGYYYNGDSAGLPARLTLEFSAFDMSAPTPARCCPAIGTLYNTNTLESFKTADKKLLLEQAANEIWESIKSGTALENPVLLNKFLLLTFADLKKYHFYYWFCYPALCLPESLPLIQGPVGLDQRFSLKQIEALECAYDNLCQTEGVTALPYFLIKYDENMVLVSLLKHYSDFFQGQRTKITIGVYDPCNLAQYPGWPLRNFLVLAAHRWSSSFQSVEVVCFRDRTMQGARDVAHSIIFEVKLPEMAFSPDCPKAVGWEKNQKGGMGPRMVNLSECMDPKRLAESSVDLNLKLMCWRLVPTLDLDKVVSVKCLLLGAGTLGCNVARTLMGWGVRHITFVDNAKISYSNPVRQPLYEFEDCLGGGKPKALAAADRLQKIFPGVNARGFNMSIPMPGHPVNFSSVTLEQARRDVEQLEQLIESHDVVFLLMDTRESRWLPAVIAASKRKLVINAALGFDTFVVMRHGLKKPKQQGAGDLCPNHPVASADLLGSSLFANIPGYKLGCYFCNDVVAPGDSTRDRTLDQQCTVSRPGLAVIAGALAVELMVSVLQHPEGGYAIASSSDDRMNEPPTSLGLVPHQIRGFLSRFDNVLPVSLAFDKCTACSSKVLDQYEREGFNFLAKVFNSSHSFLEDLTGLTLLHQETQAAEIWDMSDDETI

`Nc1ncnc2c1c(SCC(F)F)nn2[C@H]1C[C@H](O)[C@@H](COS(N)(=O)=O)O1` [Compound I-165, [(2R,3S,5R)-5-{4-amino-3-[(2,2-difluoroethyl)sulfanyl]-1H-pyrazolo[3,4-d]pyrimidin-1-yl}-3-hydroxytetrahydrofuran-2-yl]methyl sulfamate] was tested, and the IC50 was 0.05 to 0.1 µM and the inhibition at 0.111 µM (read-out: Percent Inhibition) was 62%.

In the case of `Nc1ncnc2c1c(SC(F)F)nn2[C@H]1C[C@H](O)[C@@H](COS(N)(=O)=O)O1` [Compound I-169, [(2R,3S,5R)-5-{4-amino-3-[(difluoromethyl)sulfanyl]-1H-pyrazolo[3,4-d]pyrimidin-1-yl}-3-hydroxytetrahydrofuran-2-yl]methyl sulfamate], the IC50 is reported as 0.05 to 0.1 µM and the inhibition at 0.111 µM (read-out: Percent Inhibition) is reported as 57%.

Compound `Nc1ncnc2c1c(SCC(F)(F)F)nn2[C@@H]1O[C@H](COS(N)(=O)=O)[C@@H](O)[C@H]1O` [Compound I-83, [(2R,3S,4R,5R)-5-{4-amino-3-[(2,2,2-trifluoroethyl)sulfanyl]-1H-pyrazolo[3,4-d]pyrimidin-1-yl}-3,4-dihydroxytetrahydrofuran-2-yl]methyl sulfamate] has an IC50 of 0.02 to 0.05 µM and an inhibition at 0.123 µM (read-out: Percent Inhibition) of 82%.

In the case of `Nc1ncnc2c1c(SCC1CCC1)nn2[C@@H]1O[C@H](COS(N)(=O)=O)[C@@H](O)[C@@H]1F` [Compound I-148, [(2R,3R,4S,5R)-5-{4-amino-3-[(cyclobutylmethyl)sulfanyl]-1H-pyrazolo[3,4-d]pyrimidin-1-yl}-4-fluoro-3-hydroxytetrahydrofuran-2-yl]methyl sulfamate], the IC50 is reported as < 0.02 µM and the inhibition at 0.111 µM (read-out: Percent Inhibition) is reported as 83%.

`Nc1ncnc2c1c(Sc1ccc(Cl)cc1Cl)nn2[C@@H]1O[C@H](COS(N)(=O)=O)[C@@H](O)[C@H]1O` [Compound I-34, [(2R,3S,4R,5R)-5-{4-amino-3-[(2,4-dichlorophenyl)sulfanyl]-1H-pyrazolo[3,4-d]pyrimidin-1-yl}-3,4-dihydroxytetrahydrofuran-2-yl]methyl sulfamate] gave an IC50 of 0.05 to 0.1 µM and an inhibition at 0.123 µM (read-out: Percent Inhibition) of 70%.

`C=Cc1nn([C@@H]2O[C@H](COS(N)(=O)=O)[C@@H](O)[C@H]2O)c2ncnc(N)c12` [Compound I-18, [(2R,3S,4R,5R)-5-(4-amino-3-vinyl-1H-pyrazolo[3,4-d]pyrimidin-1-yl)-3,4-dihydroxytetrahydrofuran-2-yl]methyl Sulfamate] gave an IC50 of 0.05 to 0.1 µM and an inhibition at 0.123 µM (read-out: Percent Inhibition) of 62%.

`Cn1ccnc1CSc1nn([C@@H]2O[C@H](COS(N)(=O)=O)[C@@H](O)[C@@H]2F)c2ncnc(N)c12` [Compound I-112, [(2R,3R,4S,5R)-5-(4-amino-3-{[(1-methyl-1H-imidazol-2-yl)methyl]sulfanyl}-1H-pyrazolo[3,4-d]pyrimidin-1-yl)-4-fluoro-3-hydroxytetrahydrofuran-2-yl]methyl sulfamate] was tested, and the IC50 was 0.1 to 0.5 µM and the inhibition at 0.111 µM (read-out: Percent Inhibition) was 44%.

Compound `Nc1ncnc2c1c(SCc1ccc(OC(F)(F)F)cc1)nn2[C@@H]1O[C@H](COS(N)(=O)=O)[C@@H](O)[C@H]1O` [Compound I-32, [(2R,3S,4R,5R)-5-(4-amino-3-{[4-(trifluoromethoxy)benzyl]sulfanyl}-1H-pyrazolo[3,4-d]pyrimidin-1-yl)-3,4-dihydroxytetrahydrofuran-2-yl]methyl sulfamate] has an IC50 of 0.02 to 0.05 µM and an inhibition at 0.123 µM (read-out: Percent Inhibition) of 73%.

With `Cc1csc(Sc2nn([C@H]3C[C@H](O)[C@@H](COS(N)(=O)=O)O3)c3ncnc(N)c23)n1` [Compound I-208, [(2R,3S,5R)-5-{4-amino-3-[(4-methyl-1,3-thiazol-2-yl)sulfanyl]-1H-pyrazolo[3,4-d]pyrimidin-1-yl}-3-hydroxytetrahydrofuran-2-yl]methyl sulfamate] the IC50 was 0.1 to 0.5 µM and the inhibition at 0.111 µM (read-out: Percent Inhibition) was 44%.

Work on `Nc1ncnc2c1c(SCC1=CCCCC1)nn2[C@@H]1O[C@H](COS(N)(=O)=O)[C@@H](O)[C@H]1O` [Compound I-91, [(2R,3S,4R,5R)-5-{4-amino-3-[(cyclohex-1-en-1-ylmethyl)sulfanyl]-1H-pyrazolo[3,4-d]pyrimidin-1-yl}-3,4-dihydroxytetrahydrofuran-2-yl]methyl Sulfamate] yielded an IC50 of 0.02 to 0.05 µM and an inhibition at 0.123 µM (read-out: Percent Inhibition) of 76%.

In the case of `Nc1ncnc2c1c(SCc1cc3ccccc3s1)nn2[C@H]1C[C@H](O)[C@@H](COS(N)(=O)=O)O1` [Compound I-204, [(2R,3S,5R)-5-{4-amino-3-[(1-benzothiophen-2-ylmethyl)sulfanyl]-1H-pyrazolo[3,4-d]pyrimidin-1-yl}-3-hydroxytetrahydrofuran-2-yl]methyl sulfamate], the IC50 is reported as 0.1 to 0.5 µM and the inhibition at 0.111 µM (read-out: Percent Inhibition) is reported as 50%.

In the case of `Nc1ncnc2c1c(Sc1cn[nH]c1)nn2[C@@H]1O[C@H](COS(N)(=O)=O)[C@@H](O)[C@H]1O` [Compound I-36, {(2R,3S,4R,5R)-5-[4-amino-3-(1H-pyrazol-4-ylsulfanyl)-1H-pyrazolo[3,4-d]pyrimidin-1-yl]-3,4-dihydroxytetrahydrofuran-2-yl}methyl sulfamate], the IC50 is reported as < 0.02 µM and the inhibition at 0.111 µM (read-out: Percent Inhibition) is reported as 88%.

`Cc1cccc(Sc2nn([C@@H]3O[C@H](COS(N)(=O)=O)[C@@H](O)[C@@H]3F)c3ncnc(N)c23)n1` [Compound I-102, [(2R,3R,4S,5R)-5-{4-amino-3-[(6-methylpyridin-2-yl)sulfanyl]-1H-pyrazolo[3,4-d]pyrimidin-1-yl}-4-fluoro-3-hydroxytetrahydrofuran-2-yl]methyl sulfamate] showed an IC50 of 0.05 to 0.1 µM and an inhibition at 0.111 µM (read-out: Percent Inhibition) of 68%.

`N#CCSc1nn([C@@H]2O[C@H](COS(N)(=O)=O)[C@@H](O)[C@H]2O)c2ncnc(N)c12` [Compound I-90, [(2R,3S,4R,5R)-5-{4-amino-3-[(cyanomethyl)sulfanyl]-1H-pyrazolo[3,4-d]pyrimidin-1-yl}-3,4-dihydroxytetrahydrofuran-2-yl]methyl sulfamate] gave an IC50 of 0.02 to 0.05 µM and an inhibition at 0.123 µM (read-out: Percent Inhibition) of 84%.

In the case of `Nc1ncnc2c1c(SCc1ccccc1)nn2[C@@H]1O[C@H](COS(N)(=O)=O)[C@@H](O)[C@@H]1F` [Compound I-155, {(2R,3R,4S,5R)-5-[4-amino-3-(benzylsulfanyl)-1H-pyrazolo[3,4-d]pyrimidin-1-yl]-4-fluoro-3-hydroxytetrahydrofuran-2-yl}methyl sulfamate], the IC50 is reported as 0.02 to 0.05 µM and the inhibition at 0.123 µM (read-out: Percent Inhibition) is reported as 75%.

`CN(C)CCSc1nn([C@@H]2O[C@H](COS(N)(=O)=O)[C@@H](O)[C@H]2O)c2ncnc(N)c12` [Compound I-80, [(2R,3S,4R,5R)-5-(4-amino-3-{[2-(dimethylamino)ethyl]sulfanyl}-1H-pyrazolo[3,4-d]pyrimidin-1-yl)-3,4-dihydroxytetrahydrofuran-2-yl]methyl sulfamate] showed an IC50 of 0.1 to 0.5 µM and an inhibition at 0.123 µM (read-out: Percent Inhibition) of 51%.

`Nc1ncnc2c1c(Sc1c[nH]c3ccccc13)nn2[C@H]1C[C@H](O)[C@@H](COS(N)(=O)=O)O1` [Compound I-170, {(2R,3S,5R)-5-[4-amino-3-(1H-indol-3-ylsulfanyl)-1H-pyrazolo[3,4-d]pyrimidin-1-yl]-3-hydroxytetrahydrofuran-2-yl}methyl sulfamate] gave an IC50 of 0.1 to 0.5 µM and an inhibition at 0.111 µM (read-out: Percent Inhibition) of 50%.

With `Nc1ncnc2c1cnn2[C@@H]1O[C@H](COS(N)(=O)=O)[C@@H](O)[C@H]1O` [Compound I-48, [(2R,3S,4R,5R)-5-(4-amino-1H-pyrazolo[3,4-d]pyrimidin-1-yl)-3,4-dihydroxytetrahydrofuran-2-yl]methyl sulfamate] the IC50 was 0.1 to 0.5 µM and the inhibition at 0.069 µM (Concentration 0.069 μM, read-out: Percent Inhibition) was 16%.

For `Nc1ncnc2c1c(SC(F)F)nn2[C@@H]1O[C@H](COS(N)(=O)=O)[C@@H](O)[C@@H]1F` [Compound I-98, [(2R,3R,4S,5R)-5-{4-amino-3-[(difluoromethyl)sulfanyl]-1H-pyrazolo[3,4-d]pyrimidin-1-yl}-4-fluoro-3-hydroxytetrahydrofuran-2-yl]methyl sulfamate], the IC50 was 0.02 to 0.05 µM and the inhibition at 0.111 µM (read-out: Percent Inhibition) was 77%.

With `CC(C)Sc1nn([C@@H]2O[C@H](COS(N)(=O)=O)[C@@H](O)[C@H]2O)c2ncnc(N)c12` [Compound I-58, {(2R,3S,4R,5R)-5-[4-amino-3-(isopropylsulfanyl)-1H-pyrazolo[3,4-d]pyrimidin-1-yl]-3,4-dihydroxytetrahydrofuran-2-yl}methyl Sulfamate] the IC50 was < 0.02 µM and the inhibition at 0.123 µM (read-out: Percent Inhibition) was 87%.

Work on `CCSc1nn([C@@H]2O[C@H](COS(N)(=O)=O)[C@@H](O)[C@H]2O)c2ncnc(N)c12` [Compound I-51, {(2R,3S,4R,5R)-5-[4-amino-3-(ethylsulfanyl)-1H-pyrazolo[3,4-d]pyrimidin-1-yl]-3,4-dihydroxytetrahydrofuran-2-yl}methyl sulfamate] yielded an IC50 of 0.02 to 0.05 µM and an inhibition at 0.123 µM (read-out: Percent Inhibition) of 85%.

`Nc1ncnc2c1c(OCc1ccccc1)nn2[C@@H]1O[C@H](COS(N)(=O)=O)[C@@H](O)[C@H]1O` [Compound I-76, {(2R,3S,4R,5R)-5-[4-amino-3-(benzyloxy)-1H-pyrazolo[3,4-d]pyrimidin-1-yl]-3,4-dihydroxytetrahydrofuran-2-yl}methyl Sulfamate] gave an IC50 of 0.1 to 0.5 µM and an inhibition at 0.123 µM (read-out: Percent Inhibition) of 31%.

`Nc1ncnc2c1c(Sc1nccs1)nn2[C@H]1C[C@H](O)[C@@H](COS(N)(=O)=O)O1` [Compound I-174, {(2R,3S,5R)-5-[4-amino-3-(1,3-thiazol-2-ylsulfanyl)-1H-pyrazolo[3,4-d]pyrimidin-1-yl]-3-hydroxytetrahydrofuran-2-yl}methyl sulfamate] showed an IC50 of 0.02 to 0.05 µM and an inhibition at 0.111 µM (read-out: Percent Inhibition) of 73%.

Work on `Nc1ncnc2c1c(SCc1ccc(Cl)o1)nn2[C@@H]1O[C@H](COS(N)(=O)=O)[C@@H](O)[C@H]1O` [Compound I-73, [(2R,3S,4R,5R)-5-(4-amino-3-{[(5-chloro-2-furyl)methyl]sulfanyl}-1H-pyrazolo[3,4-d]pyrimidin-1-yl)-3,4-dihydroxytetrahydrofuran-2-yl]methyl sulfamate] yielded an IC50 of 0.02 to 0.05 µM and an inhibition at 0.123 µM (read-out: Percent Inhibition) of 83%.

`CN1C(=O)Cc2cc(Sc3nn([C@H]4C[C@H](O)[C@@H](COS(N)(=O)=O)O4)c4ncnc(N)c34)ccc21` [Compound I-185, [(2R,3S,5R)-5-{4-amino-3-[(1-methyl-2-oxo-2,3-dihydro-1H-indol-5-yl)sulfanyl]-1H-pyrazolo[3,4-d]pyrimidin-1-yl}-3-hydroxytetrahydrofuran-2-yl]methyl sulfamate] showed an IC50 of 0.05 to 0.1 µM and an inhibition at 0.111 µM (read-out: Percent Inhibition) of 56%.
